Laboratory results reported in US20250034135A1, “ANTI-APOPTOTIC PROTEIN BCL-2 INHIBITOR, PHARMACEUTICAL COMPOSITION AND USES THEREOF” (HANGZHOU HEALZEN THERAPEUTICS CO., LTD., priority 2021, published 2025).

Molecular target: BCL2 (Homo sapiens (Human), UniProt P10415)
Experiment: Molecular level activity test of anti-apoptotic protein BCL2 (HTRF, binding to Bim peptide)
Conditions: HTRF, binding of BCL2 to Bim peptide; read-out: BCL2 nM (inhibitory activity, IC50)
Method in brief: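 Disruption of the BCL2/Bim peptide interaction is detected by homogeneous time-resolved fluorescence, using anti-His and streptavidin-XL665 reagents against His-tagged protein and biotin-tagged peptide. Compound exposure lasts 1 h before reagent addition; plates then sit 4 h at room temperature.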

Chain of BCL2 (P10415 whole entry): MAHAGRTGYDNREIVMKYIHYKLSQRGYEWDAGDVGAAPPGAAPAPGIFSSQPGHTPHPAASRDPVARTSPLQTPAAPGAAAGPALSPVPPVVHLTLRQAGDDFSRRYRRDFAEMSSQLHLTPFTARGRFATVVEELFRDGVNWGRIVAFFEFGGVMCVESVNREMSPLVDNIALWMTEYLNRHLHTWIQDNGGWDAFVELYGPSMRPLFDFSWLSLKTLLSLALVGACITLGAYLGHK

| SMILES | IC50 [nM] |
| --- | --- |
| COc1ccc(CN2CCN(C3CC4(CCN(c5ccc(C(=O)NS(=O)(=O)c6cc([N+](=O)[O-])c(NC[C@H]7CC[C@](C)(O)CC7)c7c6OC(C)(C)O7)c(Oc6cnc7[nH]ccc7c6)c5)CC4)C3)[C@H](c3ccccc3C(C)C)C2)cc1 [compound 163, 2-((1H-pyrrolo[2,3-b]pyrid-5-yl)oxy)-N-((7-((((1r, 4r)-4-hydroxy-4-methylcyclohexyl)methyl)amino)-2,2-dimethyl-6-nitrobenzo[d][1,3]dioxocyclopent-4-yl)sulfonyl)-4-(2-((R)-2-(2-isopropylphenyl)-4-(4-methoxybenzyl)piperazin-1-yl)-7-azaspiro[3.5]non-7-yl)benzamide] | < 10 |
| COc1ccc(CN2CCN(C3CC4(CCN(c5ccc(C(=O)NS(=O)(=O)c6cc([N+](=O)[O-])c(NCC7(F)CCOCC7)c7c6OC(F)(F)O7)c(Oc6cnc7[nH]ccc7c6)c5)CC4)C3)[C@H](c3ccccc3C(C)C)C2)cc1 [compound 164, (R)-2-((1H-pyrrolo[2,3-b]pyrid-5-yl)oxy)-N-((2,2-difluoro-7-(((4-fluorotetrahydro-2H-pyran-4-yl)methyl)amino)-6-nitrobenzo[d][1,3]dioxocyclopent-4-yl)sulfonyl)-4-(2-(2-(2-isopropylphenyl)-4-(4-methoxybenzyl)piperazin-1-yl)-7-azaspiro[3.5]non-7-yl)benzamide] | < 10 |
| COc1ccc(CN2CCN(C3CC4(CCN(c5ccc(C(=O)NS(=O)(=O)c6cc([N+](=O)[O-])c(NC[C@H]7CC[C@](C)(O)CC7)c7c6OC(F)(F)O7)c(Oc6cnc7[nH]ccc7c6)c5)CC4)C3)[C@H](c3ccccc3C(C)C)C2)cc1 [compound 165, 2-((1H-pyrrolo[2,3-b]pyrid-5-yl)oxy)-N-((2,2-difluoro-7-((((1r, 4r)-4-hydroxy-4-methylcyclohexyl)methyl)amino)-6-nitrobenzo[d][1,3]dioxocyclopent-4-yl)sulfonyl)-4-(2-((R)-2-(2-isopropylphenyl)-4-(4-methoxybenzyl)piperazin-1-yl)-7-azaspiro[3.5]non-7-yl)benzamide] | < 10 |
| COc1ccc(CN2CCN(C3CC4(CCN(c5ccc(C(=O)NS(=O)(=O)c6cc([N+](=O)[O-])c(NCC7(F)CCOCC7)c7c6OCO7)c(Oc6cnc7[nH]ccc7c6)c5)CC4)C3)[C@H](c3ccccc3C(C)C)C2)cn1 [compound 166, (R)-2-((1H-pyrrolo[2,3-b]pyrid-5-yl)oxy)-N-((7-(((4-fluorotetrahydro-2H-pyran-4-yl)methyl)amino)-6-nitrobenzo[d][1,3]dioxocyclopent-4-yl)sulfonyl)-4-(2-(2-(2-isopropylphenyl)-4-((6-methoxypyrid-3-yl)methyl)piperazin-1-yl)-7-azaspiro[3.5]non-7-yl)benzamide] | < 10 |
| CC(C)c1ccccc1[C@@H]1CN(Cc2ccc(F)cc2)CCN1C1CC2(CCN(c3ccc(C(=O)NS(=O)(=O)c4cc([N+](=O)[O-])c(NCC5(F)CCOCC5)c5c4OCO5)c(Oc4cnc5[nH]ccc5c4)c3)CC2)C1 [compound 167, (R)-2-((1H-pyrrolo[2,3-b]pyrid-5-yl)oxy)-4-(2-(4-(4-fluorobenzyl)-2-(2-isopropylphenyl)piperazin-1-yl)-7-azaspiro[3.5]non-7-yl)-N-((7-(((4-fluorotetrahydro-2H-pyran-4-yl)methyl)amino)-6-nitrobenzo[d][1,3]dioxocyclopent-4-yl)sulfonyl)benzamide] | < 10 |
| CC(C)c1ccccc1[C@@H]1CN(Cc2ccc(F)c(F)c2)CCN1C1CC2(CCN(c3ccc(C(=O)NS(=O)(=O)c4cc([N+](=O)[O-])c(NCC5(F)CCOCC5)c5c4OCO5)c(Oc4cnc5[nH]ccc5c4)c3)CC2)C1 [compound 168, (R)-2-((1H-pyrrolo[2,3-b]pyrid-5-yl)oxy)-4-(2-(4-(3,4-difluorobenzyl)-2-(2-isopropylphenyl)piperazin-1-yl)-7-azaspiro[3.5]non-7-yl)-N-((7-(((4-fluorotetrahydro-2H-pyran-4-yl)methyl)amino)-6-nitrobenzo[d][1,3]dioxocyclopent-4-yl)sulfonyl)benzamide] | < 10 |
| CC(C)c1ccccc1[C@@H]1CN(Cc2ccc(F)cc2F)CCN1C1CC2(CCN(c3ccc(C(=O)NS(=O)(=O)c4cc([N+](=O)[O-])c(NCC5(F)CCOCC5)c5c4OCO5)c(Oc4cnc5[nH]ccc5c4)c3)CC2)C1 [compound 169, (R)-2-((1H-pyrrolo[2,3-b]pyrid-5-yl)oxy)-4-(2-(4-(2,4-difluorobenzyl)-2-(2-isopropylphenyl)piperazin-1-yl)-7-azaspiro[3.5]non-7-yl)-N-((7-(((4-fluorotetrahydro-2H-pyran-4-yl)methyl)amino)-6-nitrobenzo[d][1,3]dioxocyclopent-4-yl)sulfonyl)benzamide] | < 10 |
| CC(C)c1ccccc1[C@@H]1CN(Cc2c(F)cccc2F)CCN1C1CC2(CCN(c3ccc(C(=O)NS(=O)(=O)c4cc([N+](=O)[O-])c(NCC5(F)CCOCC5)c5c4OCO5)c(Oc4cnc5[nH]ccc5c4)c3)CC2)C1 [compound 170, (R)-2-((1H-pyrrolo[2,3-b]pyrid-5-yl)oxy)-4-(2-(4-(2,6-difluorobenzyl)-2-(2-isopropylphenyl)piperazin-1-yl)-7-azaspiro[3.5]non-7-yl)-N-((7-(((4-fluorotetrahydro-2H-pyran-4-yl)methyl)amino)-6-nitrobenzo[d][1,3]dioxocyclopent-4-yl)sulfonyl)benzamide] | < 10 |
| COc1cc(CN2CCN(C3CC4(CCN(c5ccc(C(=O)NS(=O)(=O)c6cc([N+](=O)[O-])c(NCC7(F)CCOCC7)c7c6OCO7)c(Oc6cnc7[nH]ccc7c6)c5)CC4)C3)[C@H](c3ccccc3C(C)C)C2)cc2cc(C)oc12 [compound 171, (R)-2-((1H-pyrrolo[2,3-b]pyrid-5-yl)oxy)-N-((7-(((4-fluorotetrahydro-2H-pyran-4-yl)methyl)amino)-6-nitrobenzo[d][1,3]dioxocyclopent-4-yl)sulfonyl)-4-(2-(2-(2-isopropylphenyl)-4-((7-methoxy-2-methylbenzofuran-5-yl)methyl)piperazin-1-yl)-7-azaspiro[3.5]non-7-yl)benzamide] | < 10 |
| CC(C)c1ccccc1[C@@H]1CN(Cc2ccc(C3CC3)cc2)CCN1C1CC2(CCN(c3ccc(C(=O)NS(=O)(=O)c4cc([N+](=O)[O-])c(NCC5(F)CCOCC5)c5c4OCO5)c(Oc4cnc5[nH]ccc5c4)c3)CC2)C1 [compound 172, (R)-2-((1H-pyrrolo[2,3-b]pyrid-5-yl)oxy)-4-(2-(4-(4-cyclopropylbenzyl)-2-(2-isopropylphenyl)piperazin-1-yl)-7-azaspiro[3.5]non-7-yl)-N-((7-(((4-fluorotetrahydro-2H-pyran-4-yl)methyl)amino)-6-nitrobenzo[d][1,3]dioxocyclopent-4-yl)sulfonyl)benzamide] | < 10 |
| COc1cc(CN2CCN(C3CC4(CCN(c5ccc(C(=O)NS(=O)(=O)c6cc([N+](=O)[O-])c(NCC7(F)CCOCC7)c7c6OCO7)c(Oc6cnc7[nH]ccc7c6)c5)CC4)C3)[C@H](c3ccccc3C(C)C)C2)ccc1C1CC1 [compound 173, (R)-2-((1H-pyrrolo[2,3-b]pyrid-5-yl)oxy)-4-(2-(4-(4-cyclopropyl-3-methoxybenzyl)-2-(2-isopropylphenyl)piperazin-1-yl)-7-azaspiro[3.5]non-7-yl)-N-((7-(((4-fluorotetrahydro-2H-pyran-4-yl)methyl)amino)-6-nitrobenzo[d][1,3]dioxocyclopent-4-yl)sulfonyl)benzamide] | < 10 |
| COc1ccc(CN2CCN(C3CC4(CCN(c5ccc(C(=O)NS(=O)(=O)c6cc([N+](=O)[O-])c(NC[C@H]7CC[C@](C)(O)CC7)c7c6OCO7)c(Oc6cnc7[nH]ccc7c6)c5)CC4)C3)[C@H](c3ccccc3C(C)C)C2)cn1 [compound 174, 2-((1H-pyrrolo[2,3-b]pyrid-5-yl)oxy)-N-((7-((((1r, 4r)-4-hydroxy-4-methylcyclohexyl)methyl)amino)-6-nitrobenzo[d][1,3]dioxocyclopent-4-yl)sulfonyl)-4-(2-((R)-2-(2-isopropylphenyl)-4-((6-methoxypyrid-3-yl)methyl)piperazin-1-yl)-7-azaspiro[3.5]non-7-yl)benzamide] | < 10 |
| CC(C)c1ccccc1[C@@H]1CN(Cc2ccc(F)c(F)c2)CCN1C1CC2(CCN(c3ccc(C(=O)NS(=O)(=O)c4cc([N+](=O)[O-])c(NC[C@H]5CC[C@](C)(O)CC5)c5c4OCO5)c(Oc4cnc5[nH]ccc5c4)c3)CC2)C1 [compound 176, 2-((1H-pyrrolo[2,3-b]pyrid-5-yl)oxy)-4-(2-((R)-4-(3,4-difluorobenzyl)-2-(2-isopropylphenyl)piperazin-1-yl)-7-azaspiro[3.5]non-7-yl)-N-((7-((((1r, 4r)-4-hydroxy-4-methylcyclohexyl)methyl)amino)-6-nitrobenzo[d][1,3]dioxocyclopent-4-yl)sulfonyl)benzamide] | < 10 |
| CC(C)c1ccccc1[C@@H]1CN(Cc2c(F)cccc2F)CCN1C1CC2(CCN(c3ccc(C(=O)NS(=O)(=O)c4cc([N+](=O)[O-])c(NC[C@H]5CC[C@](C)(O)CC5)c5c4OCO5)c(Oc4cnc5[nH]ccc5c4)c3)CC2)C1 [compound 177, 2-((1H-pyrrolo[2,3-b]pyrid-5-yl)oxy)-4-(2-((R)-4-(2,6-difluorobenzyl)-2-(2-isopropylphenyl)piperazin-1-yl)-7-azaspiro[3.5]non-7-yl)-N-((7-((((1r, 4r)-4-hydroxy-4-methylcyclohexyl)methyl)amino)-6-nitrobenzo[d][1,3]dioxocyclopent-4-yl)sulfonyl)benzamide] | < 10 |
| CC(C)c1ccccc1[C@@H]1CN(Cc2ccc(C3CC3)cc2)CCN1C1CC2(CCN(c3ccc(C(=O)NS(=O)(=O)c4cc([N+](=O)[O-])c(NC[C@H]5CC[C@](C)(O)CC5)c5c4OCO5)c(Oc4cnc5[nH]ccc5c4)c3)CC2)C1 [compound 178, 2-((1H-pyrrolo[2,3-b]pyrid-5-yl)oxy)-4-(2-((R)-4-(4-cyclopropylbenzyl)-2-(2-isopropylphenyl)piperazin-1-yl)-7-azaspiro[3.5]non-7-yl)-N-((7-((((1r, 4r)-4-hydroxy-4-methylcyclohexyl)methyl)amino)-6-nitrobenzo[d][1,3]dioxocyclopent-4-yl)sulfonyl)benzamide] | < 10 |
